Test results: US20170022260A9 (Sanofi, priority 2013, published 2017)
≈ marks a conversion by molar mass, not a printed value.

What was measured:
[1] = test system: Female diabetic dbdb-mice; assay: Glucose lowering in female diabetic dbdb-mice; assay type: in vivo; conditions: 100 μg/kg s.c.
Protocol: Female diabetic dbdb-mice (BKS.Cg-+Leprdb/+Leprdb/OlaHsd) 10 weeks of age at study start were used. Mice were habituated to feeding and housing conditions for at least 2 weeks. 7 days prior to study start, HbA1c were determined to allocate mice to groups, aiming to spread low, medium and high HbA1c-values and in consequence the group-means (n=8), as equally as possible. On the day of study, food was removed, directly before sampling for baseline glucose assessment (t=0 min) Immediately afterwards, compounds or vehicle (phosphor buffered saline, PBS) were administered subcutaneously, 100 μg/kg, 10 ml/kg. Afterwards, blood samples were drawn by tail tip incision at 15, 30, 60, 90, 120, 150, 180, 240, 360, 480 min and 24 h. Food was re-offered after the 480 min-sampling.
Data were analysed by 2-W-ANOVA on repeated measurements, followed by Dunnett's test as post-hoc assessment, level of significance p<0.05.

[2] = physchem; assay type: physicochemical
Protocol: Prior to the testing of solubility and stability of a peptide batch, its content was determined Therefore, two parameters were investigated, its purity (HPLC-UV) and the amount of salt load of the batch (ion chromatography).
. Therefore, solutions from solid samples were prepared in different buffer systems with a concentration of 1.0 mg/mL compound based on the previously determined content. HPLC-UV was performed after 2 h of gentle agitation from the supernatant, which was obtained by 20 min of centrifugation at 4000 rpm.
This analysis also served as starting point (t0) for the stability testing.
As HPLC/UPLC method, method D or E has been used.

H-Aib-HGTFTSDLSKQLDEQRAKDFIEWLIAGGPSSGAPPPS-NH2 [SEQ ID NO: 10]
reduction of glucose compared to vehicle control, statistical significance ([1]; female db/db-mice, p<0.05, 2-way-ANOVA, Dunnett's post-hoc test): statistical significant reduction of glucose compared to vehicle control from t=60 min until 240 min | maximal effect, glucose reduction ([1]; non-fasted female db/db-mice, change from baseline (baseline on average 28 mmol/l)): ~12 mmol/1

CC[C@H](C)[C@H](NC(=O)[C@H](CC(C)C)NC(=O)[C@H](Cc1c[nH]c2ccccc12)NC(=O)[C@H](CCC(=O)O)NC(=O)[C@@H](NC(=O)[C@H](Cc1ccccc1)NC(=O)[C@H](CCC(=O)O)NC(=O)[C@H](CCCCN)NC(=O)[C@H](C)NC(=O)[C@H](CCCNC(=N)N)NC(=O)[C@H](CCC(N)=O)NC(=O)[C@H](CCC(=O)O)NC(=O)[C@H](CC(=O)O)NC(=O)[C@H](CC(C)C)NC(=O)[C@H](CCC(N)=O)NC(=O)[C@H](CCCCN)NC(=O)[C@H](CO)NC(=O)[C@H](CC(C)C)NC(=O)[C@H](CC(=O)O)NC(=O)[C@H](CO)NC(=O)[C@@H](NC(=O)[C@H](Cc1ccccc1)NC(=O)[C@@H](NC(=O)CNC(=O)[C@H](CCC(N)=O)NC(=O)[C@H](CO)NC(=O)[C@@H](N)Cc1c[nH]cn1)[C@@H](C)O)[C@@H](C)O)[C@@H](C)CC)C(=O)N[C@@H](C)C(=O)NCC(=O)NCC(=O)N1CCC[C@H]1C(=O)N[C@H](C(=O)N[C@@H](CO)C(=O)NCC(=O)N[C@@H](C)C(=O)N1CCC[C@H]1C(=O)N1CCC[C@H]1C(=O)N1CCC[C@H]1C(=O)N[C@@H](CO)C(N)=O)C(C)C [SEQ ID NO: 6, HSQGTFTSDLSKQLDEQRAKEFIEWLIAGGPVSGAPPPS-NH2]
solubility at 2 h ([2]; pH 4.5, solubility pH 4.5): 934 µg/mL (≈ 223 µM) | solubility at 2 h ([2]; pH 7.4, solubility pH 7.4): > 1000 µg/mL
